Measurements taken from ChEMBL document CHEMBL1148519, “Antitumor activity of tetrahydroisoquinoline analogues 3-epi-jorumycin and 3-epi-renieramycin G” (2006).

Tests used:
A549 = assay: Antiproliferative activity against human A549 cell line; format: functional
HCT-116 = assay: Antiproliferative activity against human HCT116 cell line; format: functional

| Structure (SMILES) | GI50 (A549) | GI50 (HCT-116) |
| --- | --- | --- |
| COC1=C(C)C(=O)C2=C(C1=O)[C@@H]1[C@H]3CC4=C(C(=O)C(OC)=C(C)C4=O)[C@H](COC(C)=O)N3[C@@H](O)[C@H](C2)N1C | 4640 nM | 610 nM |
| COC1=C(C)C(=O)C2=C(C1=O)[C@@H]1[C@@H]3CC4=C(C(=O)C(OC)=C(C)C4=O)[C@H](COC(C)=O)N3[C@@H](O)[C@H](C2)N1C | 19.2 nM | 1.9 nM |
| C/C=C(/C)C(=O)OC[C@H]1C2=C(C[C@@H]3[C@H]4C5=C(C[C@@H](C(=O)N31)N4C)C(=O)C(C)=C(OC)C5=O)C(=O)C(C)=C(OC)C2=O [3-EPI-RENIERAMYCIN G] | 10100 nM | 1400 nM |
| C/C=C(/C)C(=O)OC[C@H]1C2=C(C[C@H]3[C@H]4C5=C(C[C@@H](C(=O)N13)N4C)C(=O)C(C)=C(OC)C5=O)C(=O)C(C)=C(OC)C2=O [(-)-RENIERAMYCIN G] | 12900 nM | 3870 nM |
